Assays:
Assay type in all cases: binding
[1] = molecular target: SW480 colon carcinoma cells lysate proteins (Homo sapiens, UniProt Q16658); settings: PreyGene FSCN1
[2] = molecular target: SW480 colon carcinoma cells lysate proteins (Homo sapiens, UniProt P07355); settings: PreyGene ANXA2
[3] = molecular target: T1, SW480 colon carcinoma cells lysate proteins (Homo sapiens, UniProt Q9H9Z2); settings: PreyGene LIN28A
T1 sequence (Q9H9Z2 1-209): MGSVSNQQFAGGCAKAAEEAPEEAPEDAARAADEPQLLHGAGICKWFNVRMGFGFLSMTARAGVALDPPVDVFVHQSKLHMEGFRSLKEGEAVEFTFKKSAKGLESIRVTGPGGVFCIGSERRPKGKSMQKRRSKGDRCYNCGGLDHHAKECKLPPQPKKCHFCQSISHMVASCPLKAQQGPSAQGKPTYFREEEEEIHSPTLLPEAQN

[4] = molecular target: SW480 colon carcinoma cells lysate proteins (Homo sapiens, UniProt Q14152); settings: PreyGene EIF3A; SW480 cells
[5] = molecular target: SW480 colon carcinoma cells lysate proteins (Homo sapiens, UniProt Q14204); settings: PreyGene DYNC1H1
[6] = molecular target: T2, SW480 colon carcinoma cells lysate proteins (Homo sapiens, UniProt O00154); settings: PreyGene ACOT7
T2 sequence (O00154 1-380): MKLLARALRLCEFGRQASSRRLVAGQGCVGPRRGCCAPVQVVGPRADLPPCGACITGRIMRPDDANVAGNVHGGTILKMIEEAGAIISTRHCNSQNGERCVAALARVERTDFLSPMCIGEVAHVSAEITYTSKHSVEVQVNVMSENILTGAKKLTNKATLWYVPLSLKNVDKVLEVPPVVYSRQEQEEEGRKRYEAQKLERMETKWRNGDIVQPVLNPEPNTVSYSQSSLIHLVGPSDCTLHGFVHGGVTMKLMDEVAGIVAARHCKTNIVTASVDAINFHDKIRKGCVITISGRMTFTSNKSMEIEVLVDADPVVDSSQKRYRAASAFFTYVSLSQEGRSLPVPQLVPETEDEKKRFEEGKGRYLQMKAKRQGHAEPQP

[7] = molecular target: T3, SW480 colon carcinoma cells lysate proteins (Homo sapiens, UniProt P04264); settings: PreyGene KRT1
T3 sequence (P04264 1-644): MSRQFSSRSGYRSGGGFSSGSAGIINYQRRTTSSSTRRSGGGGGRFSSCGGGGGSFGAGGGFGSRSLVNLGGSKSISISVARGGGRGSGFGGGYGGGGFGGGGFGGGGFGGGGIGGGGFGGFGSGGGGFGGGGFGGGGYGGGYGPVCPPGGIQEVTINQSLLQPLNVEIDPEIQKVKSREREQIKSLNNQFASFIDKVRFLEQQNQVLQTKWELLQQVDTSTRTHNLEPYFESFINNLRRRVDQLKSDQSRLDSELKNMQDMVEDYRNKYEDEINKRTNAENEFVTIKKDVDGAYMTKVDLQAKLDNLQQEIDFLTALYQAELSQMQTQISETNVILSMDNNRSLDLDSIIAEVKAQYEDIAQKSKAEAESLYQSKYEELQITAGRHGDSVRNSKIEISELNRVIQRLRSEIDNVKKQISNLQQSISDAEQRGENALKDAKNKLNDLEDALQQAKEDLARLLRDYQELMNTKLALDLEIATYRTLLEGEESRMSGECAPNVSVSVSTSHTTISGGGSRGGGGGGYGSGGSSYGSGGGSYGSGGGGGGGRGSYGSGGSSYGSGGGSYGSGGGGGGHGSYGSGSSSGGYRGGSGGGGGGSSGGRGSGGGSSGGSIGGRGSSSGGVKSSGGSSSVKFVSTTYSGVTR

[8] = molecular target: T4, SW480 colon carcinoma cells lysate proteins (Homo sapiens, UniProt Q9UHD8); settings: PreyGene 09-Sep
T4 sequence (Q9UHD8 1-586): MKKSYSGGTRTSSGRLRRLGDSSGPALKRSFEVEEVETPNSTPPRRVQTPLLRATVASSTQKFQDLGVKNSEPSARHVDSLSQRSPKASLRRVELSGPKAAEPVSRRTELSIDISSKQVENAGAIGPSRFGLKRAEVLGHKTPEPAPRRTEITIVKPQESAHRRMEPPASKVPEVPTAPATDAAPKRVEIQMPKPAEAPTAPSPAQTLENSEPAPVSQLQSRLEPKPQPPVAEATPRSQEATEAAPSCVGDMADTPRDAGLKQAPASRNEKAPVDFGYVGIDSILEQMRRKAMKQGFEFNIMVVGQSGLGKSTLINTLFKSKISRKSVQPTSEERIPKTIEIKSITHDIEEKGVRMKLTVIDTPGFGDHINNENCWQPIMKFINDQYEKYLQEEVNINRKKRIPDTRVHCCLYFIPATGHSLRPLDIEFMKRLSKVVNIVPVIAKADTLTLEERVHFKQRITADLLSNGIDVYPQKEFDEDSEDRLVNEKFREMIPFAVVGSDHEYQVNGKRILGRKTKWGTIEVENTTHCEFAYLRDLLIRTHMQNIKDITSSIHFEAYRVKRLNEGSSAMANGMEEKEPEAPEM

Sequence of SW480 colon carcinoma cells lysate proteins (Homo sapiens, UniProt Q14152) (Q14152 whole entry): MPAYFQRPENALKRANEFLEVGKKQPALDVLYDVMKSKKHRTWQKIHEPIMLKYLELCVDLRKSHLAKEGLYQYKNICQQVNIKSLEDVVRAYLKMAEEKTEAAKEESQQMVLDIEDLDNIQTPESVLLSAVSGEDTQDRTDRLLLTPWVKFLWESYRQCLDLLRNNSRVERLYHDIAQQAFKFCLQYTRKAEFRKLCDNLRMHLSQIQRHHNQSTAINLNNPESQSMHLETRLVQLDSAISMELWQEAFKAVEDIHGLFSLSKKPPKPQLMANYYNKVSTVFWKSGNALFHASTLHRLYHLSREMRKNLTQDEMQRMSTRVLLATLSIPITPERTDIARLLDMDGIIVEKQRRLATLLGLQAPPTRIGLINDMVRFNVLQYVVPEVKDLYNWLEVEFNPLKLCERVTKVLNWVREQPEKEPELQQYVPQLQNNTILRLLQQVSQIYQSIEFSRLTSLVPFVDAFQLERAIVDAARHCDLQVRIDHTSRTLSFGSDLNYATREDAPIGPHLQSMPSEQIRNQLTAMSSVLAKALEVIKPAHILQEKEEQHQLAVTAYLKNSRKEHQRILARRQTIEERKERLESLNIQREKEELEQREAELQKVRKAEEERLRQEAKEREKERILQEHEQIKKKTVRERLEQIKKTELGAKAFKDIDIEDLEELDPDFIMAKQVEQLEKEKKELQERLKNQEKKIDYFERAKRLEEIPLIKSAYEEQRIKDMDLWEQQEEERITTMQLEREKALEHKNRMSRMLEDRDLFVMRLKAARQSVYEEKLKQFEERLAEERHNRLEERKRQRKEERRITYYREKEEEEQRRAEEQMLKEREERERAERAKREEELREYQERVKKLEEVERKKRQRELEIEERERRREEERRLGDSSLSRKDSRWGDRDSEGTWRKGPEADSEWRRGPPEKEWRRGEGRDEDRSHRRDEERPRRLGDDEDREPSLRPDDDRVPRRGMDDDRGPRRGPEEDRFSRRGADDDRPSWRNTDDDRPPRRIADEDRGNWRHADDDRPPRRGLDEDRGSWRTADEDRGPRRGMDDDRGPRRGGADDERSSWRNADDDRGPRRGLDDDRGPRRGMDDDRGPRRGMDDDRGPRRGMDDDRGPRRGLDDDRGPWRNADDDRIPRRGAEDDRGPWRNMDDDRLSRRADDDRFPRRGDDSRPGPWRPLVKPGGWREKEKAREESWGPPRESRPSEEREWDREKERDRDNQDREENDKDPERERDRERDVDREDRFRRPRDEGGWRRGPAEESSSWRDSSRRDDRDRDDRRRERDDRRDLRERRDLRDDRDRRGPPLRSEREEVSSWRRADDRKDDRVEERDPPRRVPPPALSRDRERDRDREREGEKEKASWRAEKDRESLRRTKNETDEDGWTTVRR
Sequence of SW480 colon carcinoma cells lysate proteins (Homo sapiens, UniProt P07355) (P07355 whole entry): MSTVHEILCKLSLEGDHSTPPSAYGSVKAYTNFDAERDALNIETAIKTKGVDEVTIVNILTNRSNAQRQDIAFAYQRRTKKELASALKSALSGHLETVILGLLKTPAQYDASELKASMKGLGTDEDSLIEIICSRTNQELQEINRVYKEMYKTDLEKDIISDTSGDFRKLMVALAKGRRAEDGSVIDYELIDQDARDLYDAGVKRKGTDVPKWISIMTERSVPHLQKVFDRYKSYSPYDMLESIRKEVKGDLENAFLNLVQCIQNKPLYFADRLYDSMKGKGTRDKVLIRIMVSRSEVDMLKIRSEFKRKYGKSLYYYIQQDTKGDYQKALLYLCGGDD

C[C@H](Oc1cc(-c2cnn(C3CCNCC3)c2)cnc1N)c1c(Cl)ccc(F)c1Cl [(5)-crizotinib]
AvgP [1]: 0.4044 | SC.Exp. 1-1 [1]: 2 | SC.Exp. 1-2 [1]: 3 | SC.Exp. 2-1 [1]: 0 | SC.Exp. 2-2 [1]: 0 | Sum (SC.Exp.) [1]: 5 | AvgP [2]: 0.41 | SC.Exp. 1-1 [2]: 13 | SC.Exp. 1-2 [2]: 13 | SC.Exp. 2-1 [2]: 0 | SC.Exp. 2-2 [2]: 0 | Sum (SC.Exp.) [2]: 26 | AvgP [3]: 0.3021 | SC.Exp. 1-1 [3]: 2 | SC.Exp. 1-2 [3]: 2 | SC.Exp. 2-1 [3]: 2 | SC.Exp. 2-2 [3]: 0 | Sum (SC.Exp.) [3]: 6 | AvgP [4]: 0 | SC.Exp. 1-1 [4]: 9 | SC.Exp. 1-2 [4]: 7 | SC.Exp. 2-1 [4]: 7 | SC.Exp. 2-2 [4]: 6 | SC.Exp. Sum [4]: 29 | AvgP [5]: 0.2458 | SC.Exp. 1-1 [5]: 13 | SC.Exp. 1-2 [5]: 13 | SC.Exp. 2-1 [5]: 2 | SC.Exp. 2-2 [5]: 2 | Sum (SC.Exp.) [5]: 30 | AvgP [6]: 0.2785 | SC.Exp. 1-1 [6]: 1 | SC.Exp. 1-2 [6]: 2 | SC.Exp. 2-1 [6]: 0 | SC.Exp. 2-2 [6]: 0 | Sum (SC.Exp.) [6]: 3 | AvgP [7]: 0.3569 | SC.Exp. 1-1 [7]: 26 | SC.Exp. 1-2 [7]: 24 | SC.Exp. 2-1 [7]: 5 | SC.Exp. 2-2 [7]: 3 | Sum (SC.Exp.) [7]: 58 | AvgP [8]: 0.323 | SC.Exp. 1-1 [8]: 1 | SC.Exp. 1-2 [8]: 2 | SC.Exp. 2-1 [8]: 0 | SC.Exp. 2-2 [8]: 2 | Sum (SC.Exp.) [8]: 5

Reference: US9446039B2, “Aminoheteroaryl compounds as MTH1 inhibitors” (CEMM—FORSCHUNGSZENTRUM FÜR MOLEKULARE MEDIZIN GMBH, priority 2012, dated 2016)
